# In patent publication US20020183340A1, “4-(4'-HYDROXYPHENYL) AMINO-6,7-DIMETHOXYQUINAZOLINE TO PREVENT DEVELOPMENT OF COLORECTAL CANCER” (Parker Hughes Institute, priority 1999, published 2002):
# Test system: APC^min mouse model
# Assay: APC^min mouse model of colorectal cancer development (chow supplemented with compound)
# Format: in vivo, mice
# Conditions: for Probability Of Survival: APC^min mice fed chow with 0.3 wt % compound once a week from six weeks of age, n = 23
# Text: An APC^min mouse model was used to test the ability of 4-(4′-hydroxyphenyl)-amino-6,7-dimethoxyquinazoline to prevent the development of colorectal cancer. A total of 23 APC^min mice were fed rodent chow, which was supplemented with 0.3 wt % 4-(4′-hydroxyphenyl)-amino-6,7-dimethoxyquinazoline once a week starting at six weeks of age. A control group of 30 mice were fed rodent chow without 4-(4′-hydroxyphenyl)-amino-6,7-dimethoxyquinazoline. The health status of the mice was monitored for thirty weeks. Table 1 below describes the Probability of Survival for each group of mice over a period of 210 days.
smiles,measurement,setting,value
"COc1cc2ncnc(Nc3ccc(O)cc3)c2cc1OC [4-(4′-hydroxyphenyl)-amino-6,7-dimethoxyquinazoline]",Probability Of Survival,age 90 days,100 ± 0
same,Probability Of Survival,age 120 days,94 ± 5
same,Probability Of Survival,age 150 days,81 ± 10
same,Probability Of Survival,age 180 days,68 ± 12
same,Probability Of Survival,age 210 days,68 ± 12
same,mice still alive,"by thirty weeks of age, mice fed compound (17% of the control mice)",68%
